Results reported in the NIST ThermoML archive (doi:10.1021/je400473z).
± gives the expanded uncertainty stated by the source.

Assay: wn = mass fraction of the nth substance listed
Conditions: 101 kPa, Liquid, Vibrating tube method

CC#N [acetonitrile] + O
mass density [kg/m3]
Conditions | 293.15 K | 303.15 K | 313.15 K
w1 = 0.1 | 983.2 ± 2 | 978.7 ± 2 | 973.5 ± 2
w1 = 0.2 | 964.2 ± 2 | 958.2 ± 2 | 951.6 ± 2
w1 = 0.4 | 918.7 ± 2 | 910.9 ± 2 | 902.8 ± 2
